Results from US10137115B2, “Therapeutic inhibitor for EBV-associated tumor with tailor responsive optical imaging” (priority 2016, dated 2018).
“Also recorded” adds a separate entry of the source. Non-standard residues stand in square brackets, D forms with d. Residues, ends and D or L forms follow the SMILES beside them. No end group written: not given here. *: point of attachment. X1 = CCN(CC)c1ccc(/C=C/c2cc[n+](CC(=O)*)cc2)cc1; Ahx = NCCCCCC(=O)O

Key:
[1] = Emission quantum yield in water, comparative method using rhodamine 6G; format: physicochemical; settings: λex=480 nm, without WT-EBNA1
Procedure: Quantum yields of L2Pn are evaluated by the following equation 1: […]
Where the subscripts r and s denote reference and sample respectively, ϕ is the quantum yield, G is the slope from the plot integrated emission intensity vs absorbance, and η is the refractive index of the solvent. The correction curve is obtained by comparing the experimentally recorded spectrum of the standard rhodamine 6G with the published data.

[2] = test system: EBV-positive (C666-1 and NPC43) and EBV-negative (CNE2 and HeLa) cell lines; assay: In vitro confocal imaging and co-staining; format: cell-based, human; settings: 10 μM, 6 h
Procedure: HeLa is EBV-negative human cervical carcinoma cells, CNE2 is EBV-negative nasopharyngeal carcinoma cells, C666-1 is EBV-positive nasopharyngeal carcinoma cells, and NPC 43 is the newly derived EBV-positive nasopharyngeal carcinoma cells.
The cells are incubated with 6 hours before monitoring imaging.

[3] = biological target: T1, WT-EBNA1 (Epstein-Barr virus, UniProt P03211); assay: Emission quantum yield in the presence of WT-EBNA1; settings: in water, saturated WT-EBNA1, λex=480 nm
T1 sequence (P03211 379-641): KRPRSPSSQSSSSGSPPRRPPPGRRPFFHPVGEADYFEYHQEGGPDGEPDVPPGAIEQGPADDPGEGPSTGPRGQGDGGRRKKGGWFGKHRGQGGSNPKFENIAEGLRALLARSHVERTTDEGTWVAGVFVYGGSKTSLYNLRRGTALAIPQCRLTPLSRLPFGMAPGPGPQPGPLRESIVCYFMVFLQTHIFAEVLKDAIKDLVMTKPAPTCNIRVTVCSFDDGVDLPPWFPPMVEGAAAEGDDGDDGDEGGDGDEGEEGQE

[4] = biological target: T1, WT-EBNA1; assay: biochemical; format: binding; parameters: Wild type EBNA1 protein (379-641 a.a.) fusing with glutathione S-transferase is expressed in Escherichia coli; GST (glutathione S-transferase); made in house; host or cells: Escherichia coli (BL21); settings: for emission intensity increase on addition of WT-EBNA1: 4 μM WT-EBNA1, PBS buffer
Procedure: Bind constant via luminescence titration: Luminescence titration analysis is conducted with gradually addition of WT EBNA1 to evaluate the binding constants between the three peptide conjugates and WT EBNA1. […] The binding constants for Ka are obtained from the double logarithm regression curve: lg[(I−I0)/I0]=lg Ka+n lg[G] equation 2
Where I and I0 are current and initial fluorescence, respectively, Ka is the binding constant, n is the number of binding sites per WT EBNA1, and [G] is total concentration of WT EBNA1.
Protein samples preparation. Five protein samples are used.

CCN(CC)c1ccc(/C=C/c2cc[n+](CC(=O)N[C@@H](CS)C(=O)NCCCCCC(=O)N[C@@H](CCCNC(=N)N)C(=O)N[C@H](CCCNC(=N)N)C(=O)N[C@@H](CCCNC(=N)N)C(=O)N[C@@H](CCCCN)C(=O)NCC(=O)NCC(=O)N[C@@H](Cc3ccc(O)cc3)C(=O)N[C@@H](Cc3ccccc3)C(=O)N[C@@H](CCSC)C(=O)N[C@H](C(=O)N[C@@H](Cc3ccccc3)C(N)=O)C(C)C)cc2)cc1 [L2P3] (X1-C[Ahx]R[dR]RKGGYFMVF-NH2)
emission quantum yield [1]: 4.3%
subcellular localization in EBV-positive cells [2]: can goes into C666-1 cell nucleus; also recorded: nuclear localization
emission quantum yield + WT EBNA1 [3]: 13.0%
Kd [4]: 3.16 µM
selectivity towards WT-EBNA1 (emission enhancement vs other proteins, ions) ([4]; 2 μM in PBS buffer, vs BSA, mutant EBNA1, ZnCl2, NaHCO3, CuCl2, citrates): selective towards WT-EBNA1
emission intensity increase on addition of WT-EBNA1 [4]: 4.7 fold

L2P2: peptide conjugate of L2 (4-(4-(Diethylamino)styryl)-N-carboxymethylpyridinium chloride) and peptide P2 YFMVF (also: conjugated to L2, site not given here)
emission quantum yield [1]: 4.4%
subcellular localization in EBV-positive cells [2]: cytoplasm location only; also recorded: only found in the cytoplasm
emission quantum yield + WT EBNA1 [3]: 3.8%
emission intensity increase on addition of WT-EBNA1 [4]: no intensity change; also recorded: did not show any enhancements
